Source: patent US20130210755A1, “METHODS FOR INHIBITING INSECT INFESTATIONS” (ELI LILLY AND COMPANY, priority 2010, published 2013)

How the values were obtained:
Type in all cases: in vivo
[1] = system: stable fly (Stomoxys calcitrans); assay: Fecal bioassay: emergence of adult stable flies from manure of horses given oral spinosad feed-through
Method: (§1) A study was conducted to evaluate the efficiency of oral spinosad feed-through for controlling development of immature stages of the house fly (Musca domestica) and stable fly (Stomoxys calcitrans) in the manure of treated horses. There were five treatment groups, having three horses each. Treatment groups 1-4 were administered the following pellet formulation: […]
(§2) Treatment groups 1-4 were provided the test substance top-dressed onto feed supplement and fed at a rate to deliver a dose, respectively, of approximately 0.6, 0.8, 1.0, and 1.2 mg spinosad/kg body weight/day, daily for the duration of the study. Treatment group 5 was the negative control group and was fed the above formulation without spinosad, and each horse in this treatment group received one ounce (28.3 g) of the negative control substance.
(§3) Fecal samples from the three horses in each treatment group were collected on study days—1, 3, 10, and 17, and bioassayed with eggs of house flies and stable flies, and the number of adult flies that emerged from the fecal sample bioassays were determined. The concentration of spinosyn A in the fecal samples was also determined.
(§4) Another study was carried out, similar to the above study, with a few changes. There were three spinosad administered groups, with the rates of spinosad being 0.4, 0.5, and 0.6 mg spinosad/kg of body weight. There was a positive control group, administered between 0.6 and 0.7 mg cyromazine/kg of body weight. There was also a negative control group.

[2] = Concentration of spinosyn A in fecal samples of treated horses
Method: as §2, §3, §4

[3] = Observed adverse effects in horses under feed-through administration
Method: as §1, §2, §4

[4] = system: horn flies (Haematobia irritans); assay: Orally administered spinosad to control horn flies on cattle; conditions: flies remaining after 24 hours exposure
Method: A study was conducted to evaluate the efficacy of orally administered spinosad to control horn flies (Haematobia irritans), an obligate ectoparasite of cattle. A liquid spinosad formulation was topically applied to a palatable feed ration and fed to cattle at doses of 0.03, 0.10, 0.30 and 3.0 mg/kg of body weight. The number of horn flies remaining after 24 hours exposure to the cattle in an enclosed room was determined on test days 2, 4, 9, 11, 16, 18, 23 and 25 and was compared to the number remaining for the control group. The percent reduction in horn flies was notable for the 0.30 and 3.0 mg/kg test groups.

[5] = system: house fly (Musca domestica); assay: Fecal bioassay: emergence of adult house flies from manure of horses given oral spinosad feed-through
Method: as §1, §2, §3
Another study was carried out, similar to the above study, with a few changes. There were three spinosad administered groups, with the rates of spinosad being 0.4, 0.5, and 0.6 mg spinosad/kg of body weight. […]

Question: Which “Reduction of the emergence of stable flies” value ([1]; second study, horses, 0.6-0.7 mg cyromazine/kg) does the source give for `Nc1nc(N)nc(NC2CC2)n1` [cyromazine] here?
Answer: Its value is 100%.

Question: Which results are given for spinosad?
Answer: reduction in stable fly emergence ([1]; first study, 0.6 mg spinosad/kg of body weight group, study day 17 fecal sample collection): 97.25%; Reduction in emergence of stable fly adults ([1]; first study, horses, all 4 spinosad treatments (0.6-1.2 mg/kg/day) at all three post-administration collections, with one exception): 100%; reduction in stable fly emergence ([1]; second study, 0.4 mg spinosad/kg of body weight group, study day 10 fecal sample collection): 99.3%; Reduction of the emergence of stable flies ([1]; second study, horses, all three spinosad groups (0.4, 0.5, 0.6 mg/kg), with one exception): 100%; mean spinosyn A concentration in fecal samples ([2]; first study, 0.6 mg spinosad/kg of body weight group, all three animals): 3.4 ppm; mean spinosyn A concentration in fecal samples ([2]; first study, 0.8 mg spinosad/kg of body weight group, all three animals): 2.9 ppm; mean spinosyn A concentration in fecal samples ([2]; first study, 1.2 mg spinosad/kg of body weight group): 5.5 ppm; concentration of spinosyn A in fecal samples (lowest single sample) ([2]; first study, one horse, 0.6 mg spinosad/kg group, study day 3): 0.9 ppm; concentration of spinosyn A in fecal samples (highest single sample) ([2]; first study, one horse, 1.2 mg spinosad/kg group, study day 10): 8.6 ppm; mean spinosyn A concentration in fecal samples ([2]; second study, 0.4 mg spinosad/kg group, all three animals, all three post-administration dates): 2.2 ppm; mean spinosyn A concentration in fecal samples ([2]; second study, 0.5 mg spinosad/kg group, all three animals, all three post-administration dates): 3.2 ppm; mean spinosyn A concentration in fecal samples ([2]; second study, 0.6 mg spinosad/kg group, all three animals, all three post-administration dates): 3.7 ppm; adverse effects ([3]; first study, horses, 0.6-1.2 mg spinosad/kg body weight/day, daily for the study): no observed adverse effects; adverse effects ([3]; second study, horses, 0.4, 0.5, 0.6 mg spinosad/kg): no observed adverse effects; percent reduction in horn flies vs control group ([4]; oral 0.30 mg/kg in feed, from day 9 and on): at least 63.3%; percent reduction in horn flies vs control group ([4]; oral 3.0 mg/kg in feed, all time points (days 2-25)): at least 89.2%; effective in preventing emergence of adult house flies ([5]; first study, all 4 groups (0.6, 0.8, 1.0, 1.2 mg spinosad/kg body weight/day), all three post-administration collection days (3, 10, 17)): 100%; efficacy in preventing emergence of adult house flies ([5]; second study, all three spinosad groups (0.4, 0.5, 0.6 mg/kg), all three fecal sample collection dates): 100%
